Species on record: Homo sapiens
Experiment: In vitro inhibition of platelet aggregation using Human platelet-Rich Plasma
Type: functional
Compound `CCCCOC(=O)N[C@@H](CNC(=O)c1ccc2nc(-c3ccc(C(=N)N)cc3)oc2c1)C(=O)O` has an IC50 of 0.02 µM.
Compound `Cc1ccc(S(=O)(=O)N[C@@H](CNC(=O)c2ccc3oc(-c4ccc(C(=N)N)cc4)nc3c2)C(=O)O)cc1` has an IC50 of 0.01 µM.
In the case of `O=C(O)CCNC(=O)c1ccc2c(c1)ncn2CCCC1CCNCC1`, the IC50 is reported as 16 µM.
`NCc1ccc(Cn2cnc3cc(C(=O)NCCC(=O)O)ccc32)cc1` was tested, and the IC50 was 83 µM.
For `NCc1ccc(-c2nc3cc(C(=O)N[C@@H](CC(=O)O)C(=O)NCCc4ccccc4)ccc3[nH]2)cc1`, the Inhibition was 16%.
For `CCCCOC(=O)N[C@@H](CNC(=O)c1ccc2[nH]c(-c3ccc(C(=N)N)cc3)nc2c1)C(=O)O`, the IC50 was 0.05 µM.
With `Cc1ccc(S(=O)(=O)N[C@@H](CNC(=O)c2ccc3nc(-c4ccc(C(=N)N)cc4)oc3c2)C(=O)O)cc1` the IC50 was 0.01 µM.
`NCc1ccc(-c2nc3cc(C(=O)NCCC(=O)O)ccc3[nH]2)cc1` was tested, and the IC50 was 100 µM.
`N=C(N)c1ccc(Cn2cnc3cc(C(=O)NCCC(=O)O)ccc32)cc1` gave an IC50 of 6.8 µM.
`NCc1ccc(-c2nc3cc(C(=O)N[C@@H](CC(=O)O)C(=O)NCCc4c[nH]c5ccccc45)ccc3[nH]2)cc1` gave an IC50 of 61 µM.
Work on `CCCCOC(=O)N[C@@H](CNC(=O)c1ccc2oc(-c3ccc(C(=N)N)cc3)nc2c1)C(=O)O` yielded an IC50 of 0.02 µM.
Work on `Cc1nc2cc(C(=O)NCCC(=O)O)ccc2n1Cc1ccc(C(=N)N)cc1` yielded an IC50 of 11 µM.

— ChEMBL document CHEMBL1128969, “Design, synthesis and in vitro activities of a series of benzimidazole/benzoxazole glycoprotein IIb/IIIa inhibitors” (Bioorg Med Chem Lett, 1996)
